Format in all cases: in vivo
In assay [1] the test system is broad-leaf weeds and grass weeds. Description: General screening of herbicidal activity in greenhouse.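 Further: 0 means no visible effect and 100 means all weeds dead or not emerged.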 Conditions: 1000 g a.i./hm^2. Here is the method:
(§1) Determination of herbicidal activity of compounds of the present invention against weeds was carried out by the following procedures:
(§2) Seeds of monocotyledonous and dicotyledonous weeds were sown in nutrition soil in paper pot (7 cm diameter), covered with soil in 1 cm and grown in the greenhouse under good growth conditions (temperature, atmospheric humidity, water supply). The compounds of the present invention as emulsifiable concentrate, were applied in pre-emergence and post-emergence treatment by track sprayer (Engineer Research Ltd., pressure 1.95 kg/cm^2, volume 500 L/hm^2, track speed 1.48 km/h). Pre-emergence treatment was conducted after seeding 24 hours and post-emergence treatment was done when the respective weeds reached predetermined leaf stage (grass weed 2- to 3-leaf stage, broad-leaf weed 2- to 4-leaf stage), the state of growth of the respective weeds were visually observed to determine the growth inhibition rate (%) in accordance with the following evaluation standard.
(§3) Growth inhibition rate (%): 0=no discernible action: 100=all weeds dead or not emerged.

Assay [2] relates to Echinochloa crus-galli (L.) Beauv. Description: Bioassay of herbicidal activity in greenhouse (further screening). Here is the method: as §1, §2, §3
Assay [3] has as its system Zinnia elegans Jacq. The description is as above. How it is done: as §1, §2, §3
For assay [4], the system named is Abutilon theophrasti Medic. The description is as above. Here is the method: as §1, §2, §3
Assay [5] has as its system Setaria glauca (L.) Beauv. The assay is described as above. Here is the method:
as §1, §2, §3

Turning to `CNC(=O)C1(C)CC(c2cc(-n3c(=O)cc(C(F)(F)F)n(C)c3=O)c(F)cc2Cl)=NO1` (centres unmarked) [Compound 23], the “pre-emergence and post-emergence herbicidal activity against broad-leaf weeds and grass weeds” value in assay [1] is given as “good”.

Regarding `CC(C)COC(=O)C1(C)CC(c2cc(-n3c(=O)cc(C(F)(F)F)n(C)c3=O)c(F)cc2Cl)=NO1` (centres unmarked) [Compound 397], the “Growth inhibition rate, Post-emergence treatment, Echinochloa crus-galli (L.) Beauv.” value in assay [2] (dose 7.5 g a.i./hm^2) is 45%; in assay [2] (dose 15 g a.i./hm^2), 65%; in assay [2] (dose 30.0 g a.i./hm^2) it was 100%; in assay [2] (dose 60.0 g a.i./hm^2), 100%; in assay [2] (dose 120.0 g a.i./hm^2), 100%. The “Growth inhibition rate, Post-emergence treatment, Zinnia elegans Jacq.” value was determined as 60% in assay [3] (dose 7.5 g a.i./hm^2); 85% in assay [3] (dose 15 g a.i./hm^2); 95% in assay [3] (dose 30.0 g a.i./hm^2); 100% in assay [3] (dose 60.0 g a.i./hm^2); 100% in assay [3] (dose 120.0 g a.i./hm^2). Further, the “Growth inhibition rate, Post-emergence treatment, Abutilon theophrasti Medic.” value stood at 98% in assay [4] (dose 7.5 g a.i./hm^2); 100% in assay [4] (dose 15 g a.i./hm^2); 100% in assay [4] (dose 30.0 g a.i./hm^2); 100% in assay [4] (dose 60.0 g a.i./hm^2); 100% in assay [4] (dose 120.0 g a.i./hm^2). For the same molecule, the “Growth inhibition rate, Post-emergence treatment, Setaria glauca (L.) Beauv.” value is reported as 55% in assay [5] (dose 7.5 g a.i./hm^2); 75% in assay [5] (dose 15 g a.i./hm^2); 85% in assay [5] (dose 30.0 g a.i./hm^2); 100% in assay [5] (dose 60.0 g a.i./hm^2); 100% in assay [5] (dose 120.0 g a.i./hm^2). Moreover, the “pre-emergence and post-emergence herbicidal activity against broad-leaf weeds and grass weeds” value in assay [1] was “good”.

Regarding `CC(C)C(=O)OCC1(C)CC(c2cc(-n3c(=O)cc(C(F)(F)F)n(C)c3=O)ccc2Cl)=NO1` (centres unmarked) [Compound 324], the “pre-emergence and post-emergence herbicidal activity against broad-leaf weeds and grass weeds” value in assay [1] was “good”.

`CSCCC(=O)OCC1(C)CC(c2cc(-n3c(=O)cc(C(F)(F)F)n(C)c3=O)ccc2Cl)=NO1` (centres unmarked) [Compound 332]: the “pre-emergence and post-emergence herbicidal activity against broad-leaf weeds and grass weeds” value in assay [1] is “good”.

With `Cn1c(C(F)(F)F)cc(=O)n(-c2cc(C3=NOC(C)(C(N)=O)C3)c(Cl)cc2F)c1=O` (centres unmarked) [Compound 22], the “Growth inhibition rate, Post-emergence treatment, Echinochloa crus-galli (L.) Beauv.” value amounted to 0% in assay [2] (dose 37.5 g a.i./hm^2), 5% in assay [2] (dose 150 g a.i./hm^2) and 10% in assay [2] (dose 600 g a.i./hm^2). For the same molecule, the “Growth inhibition rate, Pre-emergence treatment, Echinochloa crus-galli (L.) Beauv.” value in assay [2] (dose 37.5 g a.i./hm^2), in assay [2] (dose 150 g a.i./hm^2) and in assay [2] (dose 600 g a.i./hm^2) was 0% in each case. Also, the entries for the “Growth inhibition rate, Post-emergence treatment, Zinnia elegans Jacq.” value in assay [3] (dose 37.5 g a.i./hm^2), in assay [3] (dose 150 g a.i./hm^2) and in assay [3] (dose 600 g a.i./hm^2) were 55%, 90% and 95%, respectively. The “Growth inhibition rate, Pre-emergence treatment, Zinnia elegans Jacq.” value in assay [3] (dose 37.5 g a.i./hm^2), in assay [3] (dose 150 g a.i./hm^2) and in assay [3] (dose 600 g a.i./hm^2) was 0% throughout. Also, the “Growth inhibition rate, Post-emergence treatment, Abutilon theophrasti Medic.” value in assay [4] (dose 37.5 g a.i./hm^2) stood at 30%; in assay [4] (dose 150 g a.i./hm^2), 55%; in assay [4] (dose 600 g a.i./hm^2), 100%. For the same molecule, the “Growth inhibition rate, Pre-emergence treatment, Abutilon theophrasti Medic.” value in assay [4] (dose 37.5 g a.i./hm^2), in assay [4] (dose 150 g a.i./hm^2) and in assay [4] (dose 600 g a.i./hm^2) was 0% each time. In addition, the entries for the “Growth inhibition rate, Post-emergence treatment, Setaria glauca (L.) Beauv.” value in assay [5] (dose 37.5 g a.i./hm^2), in assay [5] (dose 150 g a.i./hm^2) and in assay [5] (dose 600 g a.i./hm^2) were 10%, 10% and 15%, respectively. The “Growth inhibition rate, Pre-emergence treatment, Setaria glauca (L.) Beauv.” value in assay [5] (dose 37.5 g a.i./hm^2), in assay [5] (dose 150 g a.i./hm^2) and in assay [5] (dose 600 g a.i./hm^2) was 0% each time. For the same molecule, the “pre-emergence and post-emergence herbicidal activity against broad-leaf weeds and grass weeds” value in assay [1] is on record as “good”.

Take `Cn1c(C(F)(F)F)cc(=O)n(-c2ccc(Cl)c(C3=NOC(C)(C(=O)O)C3)c2)c1=O` (centres unmarked) [Compound 282]: the “pre-emergence and post-emergence herbicidal activity against broad-leaf weeds and grass weeds” value in assay [1] is given as “good”.

On to `Cn1c(C(F)(F)F)cc(=O)n(-c2ccc(Cl)c(C3=NOC(C)(CO)C3)c2)c1=O` (centres unmarked) [Compound 320], for which, in assay [1], the “pre-emergence and post-emergence herbicidal activity against broad-leaf weeds and grass weeds” value is “good”.

`Cn1c(C(F)(F)F)cc(=O)n(-c2ccc(Cl)c(C3=NOC(C)(COC(=O)CCCl)C3)c2)c1=O` (centres unmarked) [Compound 329]: in assay [1], the “pre-emergence and post-emergence herbicidal activity against broad-leaf weeds and grass weeds” value is “good”.

In the case of `Cn1c(C(F)(F)F)cc(=O)n(-c2cc(C3=NOC(C)(COC(=O)c4cc(Oc5ccc(C(F)(F)F)cc5Cl)ccc4[N+](=O)[O-])C3)c(Cl)cc2F)c1=O` (centres unmarked) [Compound 67], the “pre-emergence and post-emergence herbicidal activity against broad-leaf weeds and grass weeds” value in assay [1] is reported as “good”.

For `COc1c(Cl)ccc(Cl)c1C(=O)OCC1(C)CC(c2cc(-n3c(=O)cc(C(F)(F)F)n(C)c3=O)c(F)cc2Cl)=NO1` (centres unmarked) [Compound 66], in assay [1], the “pre-emergence and post-emergence herbicidal activity against broad-leaf weeds and grass weeds” value is “good”.

Take `CC(C)NC(=O)C1(C)CC(c2cc(-n3c(=O)cc(C(F)(F)F)n(C)c3=O)c(F)cc2Cl)=NO1` (centres unmarked) [Compound 26]: the “pre-emergence and post-emergence herbicidal activity against broad-leaf weeds and grass weeds” value in assay [1] is on record as “good”.

In the case of `CN(C)S(=O)(=O)OCC1(C)CC(c2cc(-n3c(=O)cc(C(F)(F)F)n(C)c3=O)c(F)cc2Cl)=NO1` (centres unmarked) [Compound 96], the “pre-emergence and post-emergence herbicidal activity against broad-leaf weeds and grass weeds” value in assay [1] was “good”.

Turning to `CC(=O)OCC1(C)CC(c2cc(-n3c(=O)cc(C(F)(F)F)n(C)c3=O)ccc2Cl)=NO1` (centres unmarked) [Compound 321], the “pre-emergence and post-emergence herbicidal activity against broad-leaf weeds and grass weeds” value in assay [1] is “good”.

Take `Cn1c(C(F)(F)F)cc(=O)n(-c2ccc(Cl)c(C3=NOC(C)(COC(=O)CCc4ccccc4)C3)c2)c1=O` (centres unmarked) [Compound 333]: in assay [1], the “pre-emergence and post-emergence herbicidal activity against broad-leaf weeds and grass weeds” value is recorded as “good”.

Take `Cn1c(C(F)(F)F)cc(=O)n(-c2cc(C3=NOC(C)(CBr)C3)c(Cl)cc2F)c1=O` (centres unmarked) [Compound 99]: in assay [1], the “pre-emergence and post-emergence herbicidal activity against broad-leaf weeds and grass weeds” value is given as “good”.

On to `Cn1c(C(F)(F)F)cc(=O)n(-c2ccc(Cl)c(C3=NOC(C)(COC(=O)C4CC4)C3)c2)c1=O` (centres unmarked) [Compound 323], for which, in assay [1], the “pre-emergence and post-emergence herbicidal activity against broad-leaf weeds and grass weeds” value is “good”.

On to `Cn1c(C(F)(F)F)cc(=O)n(-c2ccc(Cl)c(C3=NOC(C)(COS(C)(=O)=O)C3)c2)c1=O` (centres unmarked) [Compound 366], for which the “pre-emergence and post-emergence herbicidal activity against broad-leaf weeds and grass weeds” value in assay [1] was “good”.

As for `Cn1c(C(F)(F)F)cc(=O)n(-c2ccc(Cl)c(C3=NOC(C)(COC(=O)CCl)C3)c2)c1=O` (centres unmarked) [Compound 328], in assay [1], the “pre-emergence and post-emergence herbicidal activity against broad-leaf weeds and grass weeds” value was “good”.

Take `Cn1c(C(F)(F)F)cc(=O)n(-c2ccc(Cl)c(C3=NOC(C)(COC(=O)c4cc(Oc5ccc(C(F)(F)F)cc5Cl)ccc4[N+](=O)[O-])C3)c2)c1=O` (centres unmarked) [Compound 345]: in assay [1], the “pre-emergence and post-emergence herbicidal activity against broad-leaf weeds and grass weeds” value is given as “good”.

For the molecule `Cn1c(C(F)(F)F)cc(=O)n(-c2cc(C3=NOC(C)(CO)C3)c(Cl)cc2F)c1=O` (centres unmarked) [Compound 42], in assay [1], the “pre-emergence and post-emergence herbicidal activity against broad-leaf weeds and grass weeds” value is listed as “good”.

As for `COC(=O)C1CCN(C(=O)C2(C)CC(c3cc(-n4c(=O)cc(C(F)(F)F)n(C)c4=O)c(F)cc3Cl)=NO2)CC1` (centres unmarked) [Compound 35], the “pre-emergence and post-emergence herbicidal activity against broad-leaf weeds and grass weeds” value in assay [1] is “good”.

Values taken from patent US10550111B2, “Pyrimidine urea compound containing isoxazolines and use thereof” (SHENYANG SINOCHEM AGROCHEMICALS R&D CO., LTD, priority 2014, dated 2020).
